In publication PMC4786998 (Journal of Hematology & Oncology, 2016):
Where two headings read alike, the source gives them in different places.

How the values were obtained:
[1] = Phase I safety/tolerability (adverse events, DLT, MTD) in patients with advanced solid tumors
Method: The study was divided into two parts: dose escalation and dose expansion. Dose escalation used a traditional 3 + 3 dose-escalation design. […] The first patient in each dose-escalation cohort was evaluated for dose-limiting toxicities (DLTs) in cycle 1, day 4. If no DLTs were reported by the investigator, the remaining patients in the cohort were enrolled. […] The protocol allowed that and subsequent doses to be expanded to enroll an additional three patients who were known to have tumors tested positive for ALK abnormalities once safety was established in the first three subjects for that cohort.

[2] = Electrocardiogram QTcF in phase I patients; settings: 325-mg dose
Method: The safety and tolerability of […] were assessed by adverse events (AEs) (graded based on NCI-CTCAE v4.03), laboratory tests, vital signs, electrocardiograms, and clinical observations.

[3] = Plasma pharmacokinetics in phase I patients; assay type: in vivo, human; settings: for AUC: read-out: AUC24
Method: On day 1, the following PK parameters were assessed for […]: area under the plasma concentration-time curve (AUC24), AUClast, maximum concentration observed (Cmax), and time of maximum concentration observed (tmax). On day 28, [NT], Cmax, Ctrough, tmax, CL/F, Vz/F, and t1⁄2, calculated based on the ratio of accumulation for AUC (day 28 AUCtau/day 1 AUC24) (Rac [AUC]), were assessed. Cumulative effects on steady-state […] plasma levels were assessed by comparing Ctrough on day 28 divided by Ctrough on days 8, 15, and 22. For continuous variables, descriptive statistics included the number of patients, mean (standard deviation), median, and range. For antitumor assessments, the number and percentage (95 % CI) of patients with CR, PR, SD, and PD were summarized. The overall best tumor response was also summarized. For the objective response rates, the exact confidence interval of response was calculated only for the dose-expansion cohort using the Clopper-Pearson method. For continuous PK parameters, the coefficient of variation was calculated. For Cmax and AUC, geometric mean was calculated. All data processing and analyses were performed using SAS® Version 9.1.3 or higher. The safety analysis set was defined as patients who received at least one […] dose. The PK analysis set was defined as patients who received at least one dose of […] and provided the values of drug concentrations for at least one time point.

[4] = tested on: crizotinib-resistant ALK-positive tumors; test: Antitumor response by RECIST v1.1 in the dose-expansion cohort; assay type: in vivo, human
Description: Solid tumor assessment was based on Response Evaluation Criteria in Solid Tumors (RECIST) v1.1. For target lesions, complete response (CR) was defined as disappearance of all target lesions and pathologic lymph nodes with a reduction in short axis to <10 mm. Partial response (PR) was defined as a ≥30 % decrease in the sum of diameters of the target lesions, taking as reference the baseline sum of diameters. Progressive disease (PD) was defined as a ≥20 % increase in the sum of diameters from the smallest sum on the study and the sum of diameters to be ≥5 mm from the smallest sum on study. Stable disease (SD) was defined as neither PR nor PD.
For patients in the dose-expansion cohort with evaluable tumor diameter, the best tumor reduction was calculated as the decrease from baseline in the sum of the target lesions.
For continuous variables, descriptive statistics included the number of patients, mean (standard deviation), median, and range. For antitumor assessments, the number and percentage (95 % CI) of patients with CR, PR, SD, and PD were summarized. The overall best tumor response was also summarized. For the objective response rates, the exact confidence interval of response was calculated only for the dose-expansion cohort using the Clopper–Pearson method. For continuous PK parameters, the coefficient of variation was calculated. For Cmax and AUC, geometric mean was calculated. All data processing and analyses were performed using SAS® Version 9.1.3 or higher.

[5] = tested on: panel of 86 tyrosine kinases; settings: 1 μmol/L; cited from earlier work
[6] = target: wild-type ALK kinase domain; settings: cited from earlier work
L1196M ALK kinase domain = settings: cited from earlier work
[7] = tested on: wild-type ALK and EML4-ALK L1196M xenograft tumors; settings: mice, subcutaneous and intracranial xenografts, compared with crizotinib; cited from earlier work
[8] = human, plasma, oral, 25 mg, cycle 1, day 1, 25 mg once daily, dose-escalation cohort, n = 4, mean (standard deviation)
[9] = human, plasma, oral, 25 mg, cycle 1, day 28, 25 mg once daily, dose-escalation cohort, n = 3, mean (standard deviation)
[10] = human, plasma, oral, 50 mg, cycle 1, day 1, 50 mg once daily, dose-escalation cohort, n = 3, mean (standard deviation)
[11] = human, plasma, oral, 50 mg, cycle 1, day 28, 50 mg once daily, dose-escalation cohort, n = 3, mean (standard deviation)
[12] = human, plasma, oral, 75 mg, cycle 1, day 1, 75 mg once daily, dose-escalation cohort, n = 3, mean (standard deviation)
[13] = human, plasma, oral, 75 mg, cycle 1, day 28, 75 mg once daily, dose-escalation cohort, n = 3, mean (standard deviation)
[14] = human, plasma, oral, 125 mg, cycle 1, day 1, 125 mg once daily, dose-escalation cohort, n = 4, mean (standard deviation)
[15] = human, plasma, oral, 125 mg, cycle 1, day 28, 125 mg once daily, dose-escalation cohort, n = 1
[16] = human, plasma, oral, 200 mg once daily, cycle 1, day 28, 200 mg once daily, dose-escalation cohort, n = 3, mean (standard deviation)
[17] = human, plasma, oral, 200 mg, cycle 1, day 1, 200 mg once daily, dose-escalation cohort, n = 4, mean (standard deviation)
[18] = human, plasma, oral, 325 mg once daily, cycle 1, day 28, 325 mg once daily, dose-escalation cohort, n = 3, mean (standard deviation)
[19] = human, plasma, oral, 325 mg, cycle 1, day 1, 325 mg once daily, dose-escalation cohort, n = 3, mean (standard deviation)
[20] = human, plasma, oral, 800 mg, cycle 1, day 1, 800 mg once daily, dose-escalation cohort, n = 3, mean (standard deviation)
[21] = human, plasma, oral, 800 mg, cycle 1, day 28, 800 mg once daily, dose-escalation cohort, n = 1
[22] = expansion cohort, 525 mg, n = 16

## COc1cc(N2CCC(N3CCN(C)CC3)CC2)ccc1Nc1ncnc(Nc2ccccc2S(=O)(=O)C(C)C)n1 [ASP3026]
[1]; all due to PD, not related to the study drug
  deaths on study: three
[1]; human, in vivo
  changes in clinical laboratory parameters or vital signs over time: no meaningful changes
  treatment-related adverse event: fatigue: 35%
  treatment-related adverse event: nausea: 38%
  treatment-related adverse event: vomiting: 35%
[1]; human, in vivo, 28 days
  dose-limiting toxicities observed: Grade 3 rash and elevated transaminase concentrations
[2]
  QTcF, mean (standard deviation) maximal increase: 47.0 (10.7) ms
[3]; human, in vivo
  slope estimate (95 % CI) of dose-normalized AUClast versus dose: 0.090 (−0.097, 0.277)
  slope estimate (95 % CI) of dose-normalized Cmax versus dose: 0.170 (−0.018, 0.358)
  t ½: 24.9 (12.7) h
  time to steady-state plasma concentrations: ≤ 8 days
[3]; human, in vivo, accumulation half-life, mean (standard deviation)
  half-life: 25 h
[3]; human, in vivo, half-life, range
  half-life: 22 to 85 h
[3]; human, in vivo, median half-life
  half-life: 35 h
[3]; human, in vivo, po, tmax
  Tmax: ~3 h
[3]; human, in vivo, t max
  Tmax: 4 h
[3]; human, in vivo, t ½
  half-life: 27.3 h
[3]; [8]
  Cmax: 32 ng/mL
  AUC: 378 ng·h/mL
[3]; human, plasma, oral, 25 mg, cycle 1, day 1, 25 mg once daily, dose-escalation cohort, n = 4, median (range), read-out: t max
  Tmax: 3 h
[3]; [9]
  Cmax: 68.4 ng/mL
  AUC: 1040 ng·h/mL
[3]; human, plasma, oral, 25 mg, cycle 1, day 28, 25 mg once daily, dose-escalation cohort, n = 3, mean (standard deviation), calculated from accumulation ratio, read-out: t ½ (converted)
  half-life: 36.6 h
[3]; human, plasma, oral, 25 mg, cycle 1, day 28, 25 mg once daily, dose-escalation cohort, n = 3, median (range), read-out: t max
  Tmax: 3 h
[3]; [10]
  Cmax: 99.7 ng/mL
  AUC: 846 ng·h/mL
[3]; human, plasma, oral, 50 mg, cycle 1, day 1, 50 mg once daily, dose-escalation cohort, n = 3, median (range), read-out: t max
  Tmax: 3 h
[3]; [11]
  Cmax: 143 ng/mL
  AUC: 2110 ng·h/mL
[3]; human, plasma, oral, 50 mg, cycle 1, day 28, 50 mg once daily, dose-escalation cohort, n = 3, mean (standard deviation), calculated from accumulation ratio, read-out: t ½ (converted)
  half-life: 35.2 h
[3]; human, plasma, oral, 50 mg, cycle 1, day 28, 50 mg once daily, dose-escalation cohort, n = 3, median (range), read-out: t max
  Tmax: 3 h
[3]; [12]
  Cmax: 87.6 ng/mL
  AUC: 1160 ng·h/mL
[3]; human, plasma, oral, 75 mg, cycle 1, day 1, 75 mg once daily, dose-escalation cohort, n = 3, median (range), read-out: t max
  Tmax: 8.2 h
[3]; [13]
  Cmax: 352 ng/mL
  AUC: 5630 ng·h/mL
[3]; human, plasma, oral, 75 mg, cycle 1, day 28, 75 mg once daily, dose-escalation cohort, n = 3, mean (standard deviation), calculated from accumulation ratio, read-out: t ½ (converted)
  half-life: 84.7 h
[3]; human, plasma, oral, 75 mg, cycle 1, day 28, 75 mg once daily, dose-escalation cohort, n = 3, median (range), read-out: t max
  Tmax: 3 h
[3]; [14]
  Cmax: 262 ng/mL
  AUC: 3000 ng·h/mL
[3]; human, plasma, oral, 125 mg, cycle 1, day 1, 125 mg once daily, dose-escalation cohort, n = 4, median (range), read-out: t max
  Tmax: 5 h
[3]; [15]
  Cmax: 668 ng/mL
  AUC: 8970 ng·h/mL
[3]; human, plasma, oral, 125 mg, cycle 1, day 28, 125 mg once daily, dose-escalation cohort, n = 1, calculated from accumulation ratio, read-out: t ½ (converted)
  half-life: 36.7 h
[3]; human, plasma, oral, 125 mg, cycle 1, day 28, 125 mg once daily, dose-escalation cohort, n = 1, read-out: t max
  Tmax: 2.1 h
[3]; [16]
  Cmax: 682 ng/mL
  AUC: 7620 ng·h/mL
[3]; human, plasma, oral, 200 mg once daily, cycle 1, day 28, 200 mg once daily, dose-escalation cohort, n = 3, mean (standard deviation), calculated from accumulation ratio, read-out: t ½ (converted)
  half-life: 21.9 h
[3]; human, plasma, oral, 200 mg once daily, cycle 1, day 28, 200 mg once daily, dose-escalation cohort, n = 3, median (range), read-out: t max
  Tmax: 3 h
[3]; [17]
  Cmax: 490 ng/mL
  AUC: 4580 ng·h/mL
[3]; human, plasma, oral, 200 mg, cycle 1, day 1, 200 mg once daily, dose-escalation cohort, n = 4, median (range), read-out: t max
  Tmax: 2.5 h
[3]; [18]
  Cmax: 1160 ng/mL
  AUC: 18800 ng·h/mL
[3]; human, plasma, oral, 325 mg once daily, cycle 1, day 28, 325 mg once daily, dose-escalation cohort, n = 3, mean (standard deviation), calculated from accumulation ratio, read-out: t ½ (converted)
  half-life: 26.3 h
[3]; human, plasma, oral, 325 mg once daily, cycle 1, day 28, 325 mg once daily, dose-escalation cohort, n = 3, median (range), read-out: t max
  Tmax: 4 h
[3]; [19]
  Cmax: 586 ng/mL
  AUC: 7950 ng·h/mL
[3]; human, plasma, oral, 325 mg, cycle 1, day 1, 325 mg once daily, dose-escalation cohort, n = 3, median (range), read-out: t max
  Tmax: 3 h
[3]; [20]
  Cmax: 1630 ng/mL
  AUC: 21800 ng·h/mL
[3]; human, plasma, oral, 800 mg, cycle 1, day 1, 800 mg once daily, dose-escalation cohort, n = 3, median (range), read-out: t max
  Tmax: 3 h
[3]; [21]
  Cmax: 4850 ng/mL
  AUC: 78100 ng·h/mL
[3]; human, plasma, oral, 800 mg, cycle 1, day 28, 800 mg once daily, dose-escalation cohort, n = 1, calculated from accumulation ratio, read-out: t ½ (converted)
  half-life: 37.9 h
[3]; human, plasma, oral, 800 mg, cycle 1, day 28, 800 mg once daily, dose-escalation cohort, n = 1, read-out: t max
  Tmax: 4 h
[3]; multiple dosing (day 28), 25- to 800-mg dose range
  linearity and dose proportionality of exposure (Cmax and AUClast): both linear and dose-proportional exposure
[4]; 525 mg, 16 crizotinib-resistant ALK-positive patients
  best overall response: stable disease rate: 44%
[4]; 525 mg, 16 crizotinib-resistant ALK-positive patients (15 NSCLC, 1 neuroblastoma)
  best overall response: partial response rate: 50%
[4]; 525 mg, 16 crizotinib-resistant ALK-positive patients, 95 % CI 25–75 %
  objective (overall) response rate (CR + PR): 50%
[4]; 525 mg, restricted to ALK-positive NSCLC patients, 6/15
  stable disease rate: 40%
[4]; 525 mg, restricted to ALK-positive NSCLC patients, 8/15
  partial response rate: 53%
[4]; ALK-positive patients, 95 % CI 4–9
  median progression-free survival: 6 months
[4]; dose-expansion cohort, 525 mg
  duration of response, range: 27 to 338 days
[4]; [22]
  Best overall response: complete response: 0 n (%)
  Best overall response: partial response: 8 (50) n (%)
  Best overall response: progressive disease: 0 n (%)
  Best overall response: stable disease: 7 (44) n (%)
  Best overall response: unable to evaluate: 1 (6) n (%)
[4]; expansion cohort, 525 mg, n = 16, 95 % CI 25–75 %
  Objective response (complete response + partial response): 8 (50) n (%)
[5]
  number of tyrosine kinases inhibited by more than 50 %: 11
[6]
  IC50: 10 nM
L1196M ALK kinase domain
  IC50: 32 nM
[7]
  antitumor activity in xenograft tumors: potent antitumor activity
